test system: CHIKV; type: cell-based, chikungunya virus

| Substance | Score_si2 | Score_si1 | Score_si3 | Score_si4 |
| --- | --- | --- | --- | --- |
| Hs_GUCY1B3_1 (sense AAGGGTCAAATGATCTACTTA; chemistry not given here) [reference compound] | -0.88 |  |  |  |
| Hs_GUCY1B3_2 (sense ACCTAACATGGTGATCTGCAA; chemistry not given here) [reference compound] |  | -1.2 |  |  |
| Hs_GUCY1B3_3 (sense CAAGACTTTCTTCTAGATATA; chemistry not given here) [reference compound] |  |  | -0.83 |  |
| Hs_HMGA1L4_1 (sense AAGCCTCAGCTCAAACTCAAA; chemistry not given here) |  | 2.38 |  |  |
| Hs_HMGA1L4_2 (sense CTGGCTGGATGAAGACAGTAA; chemistry not given here) |  |  |  | 0.45 |
| Hs_HMMR_2 (sense AAGTTAAGTCTTCGGAATCAA; chemistry not given here) |  | 2.42 |  |  |
| Hs_HSPE1_4 (sense CTGAAATAAGTCACTATTGAA; chemistry not given here) |  |  |  | 1.81 |
| Hs_HSPE1_6 (sense GAGGGAGTAATGGCAGGACAA; chemistry not given here) |  | 2.37 |  |  |
| Hs_HTATIP_8 (sense CACCACATTGCCTGTCCTCTA; chemistry not given here) |  | 2.67 |  |  |
| Hs_INTS8_2 (sense CTGGGAATTAAAGACAATTTA; chemistry not given here) | 2.65 |  |  |  |
| Hs_IQGAP1_1 (sense CTGGGAGATAATGCCCACTTA; chemistry not given here) | 1.04 |  |  |  |
| Hs_IQGAP1_3 (sense AAGGCATATCAAGATCGGTTA; chemistry not given here) |  |  |  | 0.77 |
| Hs_IQGAP1_4 (sense TGCCCACTTAAGCATCATTAA; chemistry not given here) |  |  | 0.98 |  |
| Hs_IRAK1_5 (sense CCGGGCAATTCAGTTTCTACA; chemistry not given here) |  |  |  | 1.36 |
| Hs_IRAK1_6 (sense TCCCATCGCCATGCAGATCTA; chemistry not given here) |  |  | 1.57 |  |
| Hs_IRAK1_10 (sense AAGCAAGTCAGGTTTCATGTA; chemistry not given here) | 1.62 |  |  |  |
| Hs_ITGB4BP_1 (sense CTGGATCTATCATTACTGCAA; chemistry not given here) |  |  | 1.14 |  |
| Hs_ITGB4BP_2 (sense AAGCTACTGTGTCTTCAGCAA; chemistry not given here) |  |  |  | 1.08 |
| Hs_ITGB4BP_3 (sense CAGGGAGACAGAAGAAATTCT; chemistry not given here) |  | 1.54 |  |  |
| Hs_KAZALD1_1 (sense CCGGAGGAGCTGCTTTCTGAA; chemistry not given here) | 1.12 |  |  |  |
| Hs_KAZALD1_2 (sense ACAGGGCTAGGCACCAATAAA; chemistry not given here) |  | 1.74 |  |  |
| Hs_KCTD10_1 (sense AAGGCTTTGTTTAGGGATCAA; chemistry not given here) |  | 2.04 |  |  |
| Hs_KIAA0252_2 (sense AAGGAATTATCTATTAAAGAA; chemistry not given here) |  | 2.74 |  |  |
| Hs_KIAA0674_1 (sense CCGGAAACAACTGGAACTCAA; chemistry not given here) |  | 1.96 |  |  |
| Hs_KIAA0674_2 (sense CCCGGCAACATAACACTGAAA; chemistry not given here) | 1.52 |  |  |  |
| Hs_KIAA0947_2 (sense CTGGCAGTTTATTGCTCTTAA; chemistry not given here) |  | 2.71 |  |  |
| Hs_KIAA1012_2 (sense CAGGGTTGCTATTTACTTAAA; chemistry not given here) |  | 2.22 |  |  |

| Substance | Score_si2 | Score_si1 | Score_si3 | Score_si4 |
| --- | --- | --- | --- | --- |
| Hs_KRTCAP2_5 (sense CTCGCTCACTGCCTTCAATAA; chemistry not given here) |  |  | 1.15 |  |
| Hs_KRTCAP2_6 (sense CTGACCCTGAATGTTCAATAA; chemistry not given here) |  | 1.71 |  |  |
| Hs_KRTHA2_1 (sense CAGATGGAGGAGCTTAACCAA; chemistry not given here) |  | 1.15 |  |  |
| Hs_KRTHA2_2 (sense ATGGTTGTGAACATTGATAAT; chemistry not given here) | 1.02 |  |  |  |
| Hs_LBX1_1 (sense CACCAGATCTATGAATTGGAA; chemistry not given here) |  |  | 1.41 |  |
| Hs_LBX1_2 (sense CAAGGCCGAGATGACTTCCAA; chemistry not given here) |  | 2 |  |  |
| Hs_LIP8_1 (sense CTGGACTTTGCTAAAGCAGAA; chemistry not given here) |  |  |  | 0.62 |
| Hs_LIP8_2 (sense AAGCATATCTTTGAGATGGAA; chemistry not given here) |  | 2.14 |  |  |
| Hs_LOC283377_3 (sense CAGGCCTTTCTCAGACTGTAT; chemistry not given here) |  | 2.72 |  |  |
| Hs_LOC283377_7 (sense AAAGCTAGGCATACAGCCAAA; chemistry not given here) |  |  | 0.76 |  |
| Hs_LOC407835_4 (sense CAGGGAGATCAGCATCTGCAT; chemistry not given here) | 0.79 |  |  |  |
| Hs_LOC407835_6 (sense CTGCTGGACTATATTGTGAAA; chemistry not given here) |  |  | 0.74 |  |
| Hs_LOH12CR1_1 (sense CCCGATGTCATCAAGTTGCAA; chemistry not given here) |  | 2.42 |  |  |
| Hs_LOXL2_1 (sense CCGGAGTTGCCTGCTCAGAAA; chemistry not given here) | 1.33 |  |  |  |
| Hs_LOXL2_3 (sense CAGGCAATGAGAAGTCCATTA; chemistry not given here) |  | 2.38 |  |  |
| Hs_LOXL2_4 (sense CTCGAGATTCCGGAAAGCATA; chemistry not given here) |  |  |  | 0.97 |
| Hs_LRIG2_1 (AGGGATGTCATTGTAAATATA; chemistry not given here) [reference compound] |  | -2.53 |  |  |
| Hs_LRP6_2 (CTGGATTGTTATCCGACTGAA; chemistry not given here) | 1.63 |  |  |  |
| Hs_LRP6_7 (CTGGATGGTTCTGACCGTGTA; chemistry not given here) |  | 1.93 |  |  |
| Hs_LTBP3_1 (CCGGGACAGATCTCAGCAGAA; chemistry not given here) | 1.9 |  |  |  |
| Hs_LTBP3_2 (CCGCTACTGCGTGGATGTGAA; chemistry not given here) |  |  |  | 1.32 |
| Hs_MAP2K2_9 (TTCCAGGAGTTTGTCAATAAA; chemistry not given here) |  |  |  | 0.51 |
| Hs_MAP3K14_1 (CAGGACTCACGTAGCATTAAA; chemistry not given here) | 1.59 |  |  |  |
| Hs_MAP3K14_5 (CACATGCATGTGACTCCTCAA; chemistry not given here) |  |  |  | 0.74 |
| Hs_MAP3K14_6 (TACCTAGTGCATGCTCTGCAA; chemistry not given here) |  |  | 1.59 |  |
| Hs_MAZ_2 (CCGCGACGTCTACCACCTGAA; chemistry not given here) |  | 2.43 |  |  |
| Hs_MDS032_1 (TCGAATCATGCCTAAACTCAA; chemistry not given here) |  |  |  | 1.39 |

| Substance | Score_si2 | Score_si1 | Score_si3 | Score_si4 |
| --- | --- | --- | --- | --- |
| Hs_MGC2803_1 (TGCGATGTACATAACTATTTA; chemistry not given here) |  |  |  | -0.65 |
| Hs_MGC2803_2 (CGGGAACAAACTAGCCCTCAA; chemistry not given here) |  | 2.43 |  |  |
| Hs_MGC11102_1 (TAGCGTGGCTTTAAACATATA; chemistry not given here) | 1.11 |  |  |  |
| Hs_MGC11102_2 (CAGGTGGTTTGTTCTTTCTTA; chemistry not given here) |  | 1.25 |  |  |
| Hs_MGC13138_1 (CTGGCATTTCCCGCTCATTTA; chemistry not given here) [reference compound] |  | -2.19 |  |  |
| Hs_MGC21830_1 (CCGGAGACAGCGGCTGATTTA; chemistry not given here) [reference compound] |  | -1.05 |  |  |
| Hs_MGC21830_2 (CAGCTGGGCGGTGCTGTTCGA; chemistry not given here) [reference compound] | -1.02 |  |  |  |
| Hs_MRPS12_2 (CTGCTGGGACAAGACACTGTA; chemistry not given here) | 1.92 |  |  |  |
| Hs_MRPS12_7 (TTCCATCAGGACCACTATTAA; chemistry not given here) |  | 1.99 |  |  |
| Hs_NAG_1 (CAGAGGAAGATTGAAAGTGAA; chemistry not given here) | 2.12 |  |  |  |
| Hs_NAG_2 (CAGACAGAAATTCTTTATCAA; chemistry not given here) |  | 2.66 |  |  |
| Hs_NCOA1_1 (CAGCGGGAACTGTACAGTCAA; chemistry not given here) | 1.96 |  |  |  |
| Hs_NCOA1_14 (CTCCTAATATTTCGACATTAA; chemistry not given here) |  | 2.06 |  |  |
| Hs_NDUFA2_2 (TCCACTGAGGATTAAGAGCAA; chemistry not given here) |  | 2.51 |  |  |
| Hs_NDUFA7_1 (CAGGGAGAATGTGACCTAATT; chemistry not given here) [reference compound] |  | -2.23 |  |  |
| Hs_NPAT_1 (ACCAATGCACATATAATTTAA; chemistry not given here) [reference compound] | -1.26 |  |  |  |
| Hs_NPAT_2 (AAGGCACATCTTCAAACAATA; chemistry not given here) [reference compound] |  | -1.61 |  |  |
| Hs_NPEPL1_1 (CTGATTTATAGGGCAAGAGAA; chemistry not given here) |  |  |  | 1.11 |
| Hs_NPEPL1_2 (CACCTTCCTCGAGGAGATTAA; chemistry not given here) | 1.71 |  |  |  |
| Hs_NPEPL1_3 (CTGCAATGAGATGAACACCGA; chemistry not given here) |  | 2.35 |  |  |
| Hs_NPEPL1_4 (CAGAATTCACTTGAGGTTCAA; chemistry not given here) |  |  | 1.44 |  |
| Hs_NRCAM_1 (CAGGCCTTCAGTACAAAGTTA; chemistry not given here) |  |  | 0.75 |  |
| Hs_NRCAM_2 (AACGCTCATAATTAACATCAT; chemistry not given here) |  |  |  | 0.35 |
| Hs_NRCAM_3 (GACGTTTGGTTTAAAGAATTA; chemistry not given here) | 0.93 |  |  |  |
| Hs_NRCAM_4 (AGGGTGGTAAATATCCAGTTA; chemistry not given here) |  | 1.08 |  |  |
